The nature of data set [1]: Cyto-toxicity (MTT assay). It is filed as cell-based.
Data set [2] can be described thus: Single dose oral pharmacokinetic study. It is filed as in vivo. The following applies: mouse, Mice oral PK @30 mg/kg, plasma, vehicle 10% Solutol+20% PEG; for AUC(0-t): read-out: AUC0-t; for Cmax: read-out: Cmax. On the procedure:
The test item was administered through oral route to animals (rat/mice) at 30 mg/kg dose in a suitable vehicle (10% Solutol+20% PEG) at 10 ml/kg dose volume. Blood samples (˜50 μL at each time point) were collected from retro-orbital plexus using K3 EDTA as anticoagulant in eppendorf tubes at defined time intervals 30 minutes, 1 hour, 2 hour, 4 hour, 8 hour, 24 hour & 48 hour under light ether anaesthesia. The samples were centrifuged at 3500×g to separate plasma and stored at −80° C. until analysis. Plasma 25 μl for Mice were processed as per described in sample preparation.
Standard solutions of the test compound 1 mg/mL solutions were prepared in DMSO and further dilutions were made in methanol. […] To the test compound plasma extraction was carried out using Acetonitrile precipitation. After reconstitution with solvent (50% Acetonitrile in Buffer) samples were analyzed by LCMSMS to get the concentrations to calculate PK Parameters.

What is called viability is the share of living cells, or the viability signal relative to a control. The low end stands for a greater loss of cells, the high end for better survival. As a reminder, the Cmax is the maximum level reached in the sampled fluid or tissue.

The structures appear in SMILES notation.

Take `CC(C)C1=C2[C@H]3CC[C@@H]4[C@@]5(C)CC[C@H](OC(=O)[C@H]6C[C@@H](C(=O)O)C6(C)C)C(C)(C)[C@@H]5CC[C@@]4(C)[C@]3(C)CC[C@@]2(NC(=O)C(C)(C)NC(=O)c2cc(C(C)C)n[nH]2)CC1=O` [Example 17, (1R,3S)-3-((((3aR,5aR,5bR,7aR,9S,11aR,11bR,13aS)-1-isopropyl-3a-(2-(3-isopropyl-1H-pyrazole-5-carboxamido)-2-methylpropanamido)-5a,5b,8,8, 11a-pentamethyl-2-oxo-3,3a,4,5,5a,5b,6,7,7a,8,9,10,11,11a,11b,12,13,13a-octadecahydro-2H-cyclopenta[a]chrysen-9-yl)oxy)carbonyl)-2,2-dimethylcyclobutane-1-carboxylic acid]: in data set [1], the viability at 4 days, 0.001 µM was determined as 81%; the viability at 4 days, 0.003 µM turned out to be 62%; the viability at 4 days, 0.01 µM was 26%. In data set [2], the AUC(0-t) was 333 µg·h/mL and the Cmax stood at 28600 ng/mL.
For `CC(C)C1=C2[C@H]3CC[C@@H]4[C@@]5(C)CC[C@H](OC(=O)[C@H]6C[C@@H](C(=O)O)C6(C)C)C(C)(C)[C@@H]5CC[C@@]4(C)[C@]3(C)CC[C@@]2(NC(=O)C(C)(C)NC(=O)c2ccc(N3CCOCC3)cc2)CC1=O` [Example 18, (1R,3S)-3-((((3aR,5aR,5bR,7aR,9S,11aR,11bR,13aS)-1-isopropyl-5a,5b,8,8,11a-pentamethyl-3a-(2-methyl-2-(4-morpholinobenzamido)propanamido)-2-oxo-3,3a,4,5,5a,5b,6,7,7a,8,9,10,11,11a,11b,12,13,13a-octadecahydro-2H-cyclopenta[a]chrysen-9-yl)oxy)carbonyl)-2,2-dimethylcyclobutane-1-carboxylic acid] the same measures were 78%, 61%, 29%, 236 µg·h/mL and 15900 ng/mL.
For `Cc1noc(C)c1C(=O)NC(C)(C)C(=O)N[C@@]12CC[C@]3(C)[C@H](CC[C@@H]4[C@@]5(C)CC[C@H](OC(=O)[C@H]6C[C@@H](C(=O)O)C6(C)C)C(C)(C)[C@@H]5CC[C@]43C)C1=C(C(C)C)C(=O)C2` [Example 19, (1R,3S)-3-((((3aR,5aR,5bR,7aR,9S,11aR,11bR,13aS)-3a-(2-(3,5-dimethylisoxazole-4-carboxamido)-2-methylpropanamido)-1-isopropyl-5a,5b,8,8,11a-pentamethyl-2-oxo-3,3a,4,5,5a,5b,6,7,7a,8,9,10,11,11a,11b,12,13,13a-octadecahydro-2H-cyclopenta[a]chrysen-9-yl)oxy)carbonyl)-2,2-dimethylcyclobutane-1-carboxylic acid] the same measures were 79%, 65%, 40%, 93 µg·h/mL and 13900 ng/mL.
Consider `Cc1cn(-c2ccc(C(=O)NC(C)(C)C(=O)N[C@@]34CC[C@]5(C)[C@H](CC[C@@H]6[C@@]7(C)CC[C@H](OC(=O)[C@H]8C[C@@H](C(=O)O)C8(C)C)C(C)(C)[C@@H]7CC[C@]65C)C3=C(C(C)C)C(=O)C4)cc2)cn1` [Example 20, (1R,3S)-3-((((3aR,5aR,5bR,7aR,9S,11aR,11bR,13aS)-1-isopropyl-5a,5b,8,8,11a-pentamethyl-3a-(2-methyl-2-(4-(4-methyl-1H-imidazol-1-yl)benz amido)propanamido)-2-oxo-3,3a,4,5,5a,5b,6,7,7a,8,9,10,11,11a,11b,12,13,13a-octadeca hydro-2H-cyclopenta[a]chrysen-9-yl)oxy)carbonyl)-2,2-dimethylcyclobutane-1-carboxylic acid], for which, in data set [1], the viability at 4 days, 0.001 µM was determined as 91%; the viability at 4 days, 0.003 µM is 85%; the viability at 4 days, 0.01 µM was 40%. In addition, in data set [2], the AUC(0-t) came to 236 µg·h/mL and the Cmax was 19000 ng/mL.
For `CC(C)C1=C2[C@H]3CC[C@@H]4[C@@]5(C)CC[C@H](OC(=O)[C@@H]6C[C@H](C(=O)O)C6(C)C)C(C)(C)[C@@H]5CC[C@@]4(C)[C@]3(C)CC[C@@]2(NC(=O)C(C)(C)NC(=O)c2ccc(Cl)cc2)CC1=O` [Example 21, (1S,3R)-3-((((3aR,5aR,5bR,7aR,9S,11aR,11bR,13aS)-3a-(2-(4-chlorobenzamido)-2-methylpropanamido)-1-isopropyl-5a,5b,8,8,11a-pentamethyl-2-oxo-3,3a,4,5,5a,5b,6,7,7a,8,9,10,11,11a,11b,12,13,13a-octadecahydro-2H-cyclopenta[a]chrysen-9-yl)oxy)carbonyl)-2,2-dimethylcyclobutane-1-carboxylic acid], in data set [1], the viability at 4 days, 0.01 µM amounted to 36%; the viability at 4 days, 0.1 µM worked out at 7%; the viability at 4 days, 1 µM came to 6%. Further, in data set [2], the AUC(0-t) stood at 191 µg·h/mL and the Cmax is 16000 ng/mL.
For `CC(C)C1=C2[C@H]3CC[C@@H]4[C@@]5(C)CC[C@H](OC(=O)[C@H]6C[C@@H](C(=O)O)C6(C)C)C(C)(C)[C@@H]5CC[C@@]4(C)[C@]3(C)CC[C@@]2(NC(=O)C(C)(C)NC(=O)c2ccc(F)cc2)CC1=O` [Example 22, (1R,3S)-3-((((3aR,5aR,5bR,7aR,9S,11aR,11bR,13aS)-3a-(2-(4-fluorobenzamido)-2-methylpropanamido)-1-isopropyl-5a,5b,8,8,11a-pentamethyl-2-oxo-3,3a, 4,5,5a,5b,6,7,7a,8,9,10,11,11a,11b,12,13,13a-octadecahydro-2H-cyclopenta[a]chrysen-9-yl)oxy)carbonyl)-2,2-dimethylcyclobutane-1-carboxylic acid] the same measures were 21%, 3%, 3%, 490 µg·h/mL and 23600 ng/mL.
For `Cc1ccc(C(=O)NC(C)(C)C(=O)N[C@@]23CC[C@]4(C)[C@H](CC[C@@H]5[C@@]6(C)CC[C@H](OC(=O)[C@H]7C[C@@H](C(=O)O)C7(C)C)C(C)(C)[C@@H]6CC[C@]54C)C2=C(C(C)C)C(=O)C3)cc1` [Example 23, (1R,3S)-3-((((3aR,5aR,5bR,7aR,9S,11aR,11bR,13aS)-1-isopropyl-5a,5b,8,8,11a-pentamethyl-3a-(2-methyl-2-(4-methylbenzamido)propanamido)-2-oxo-3,3a,4,5,5a,5b,6,7,7a,8,9,10,11,11a,11b,12,13,13a-octadecahydro-2H-cyclopenta[a]chrysen-9-yl)oxy)carbonyl)-2,2-dimethylcyclobutane-1-carboxylic acid] the same measures were 34%, 8%, 4%, 590 µg·h/mL and 29700 ng/mL.
For `CC(C)C1=C2[C@H]3CC[C@@H]4[C@@]5(C)CC[C@H](OC(=O)[C@H]6C[C@@H](C(=O)O)C6(C)C)C(C)(C)[C@@H]5CC[C@@]4(C)[C@]3(C)CC[C@@]2(NC(=O)C(C)(C)NC(=O)c2ccoc2)CC1=O` [Example 24, (1R,3S)-3-((((3aR,5aR,5bR,7aR,9S,11aR,11bR,13aS)-3a-(2-(furan-3-carboxamido)-2-methylpropanamido)-1-isopropyl-5a,5b,8,8,11a-pentamethyl-2-oxo-3,3a,4,5,5a,5b,6,7,7a,8,9,10,11,11a,11b,12,13,13a-octadecahydro-2H-cyclopenta[a]chrysen-9-yl)oxy)carbonyl)-2,2-dimethylcyclobutane-1-carboxylic acid] the same measures were 69%, 21%, 6%, 428 µg·h/mL and 29600 ng/mL.
For `CC(C)C1=C2[C@H]3CC[C@@H]4[C@@]5(C)CC[C@H](OC(=O)[C@H]6C[C@@H](C(=O)O)C6(C)C)C(C)(C)[C@@H]5CC[C@@]4(C)[C@]3(C)CC[C@@]2(NC(=O)C(C)(C)NC(=O)c2ccc(C(F)(F)F)cc2)CC1=O` [Example 25, (1R,3S)-3-((((3aR,5aR,5bR,7aR,9S,11aR,11bR,13aS)-1-isopropyl-5a,5b,8,8,11a-pentamethyl-3a-(2-methyl-2-(4-(trifluoromethyl)benzamido)propan amido)-2-oxo-3,3a,4,5,5a,5b,6,7,7a,8,9,10,11,11a,11b,12,13,13a-octadecahydro-2H-cyclopenta[a]chrysen-9-yl)oxy)carbonyl)-2,2-dimethylcyclobutane-1-carboxylic acid], in data set [1], the viability at 4 days, 0.01 µM was determined as 31%; the viability at 4 days, 0.1 µM was determined as 6%; the viability at 4 days, 1 µM came out at 2%. Besides, in data set [2], the AUC(0-t) was found to be 336 µg·h/mL and the Cmax worked out at 24000 ng/mL.
For `CC(C)C1=C2[C@H]3CC[C@@H]4[C@@]5(C)CC[C@H](OC(=O)[C@H]6C[C@@H](C(=O)O)C6(C)C)C(C)(C)[C@@H]5CC[C@@]4(C)[C@]3(C)CC[C@@]2(NC(=O)C(C)(C)NC(=O)c2ccc3ccccc3n2)CC1=O` [Example 28, (1R,3S)-3-((((3aR,5aR,5bR,7aR,9S,11aR,11bR,13aS)-1-isopropyl-5a,5b,8,8,11a-pentamethyl-3a-(2-methyl-2-(quinoline-2-carboxamido)propanamido)-2-oxo-3,3a,4,5,5a,5b,6,7,7a,8,9,10,11,11a,11b,12,13,13a-octadecahydro-2H-cyclopenta[a]chrysen-9-yl)oxy)carbonyl)-2,2-dimethylcyclobutane-1-carboxylic acid] the same measures were 21%, 10%, 6%, 345 µg·h/mL and 16200 ng/mL.

The values are drawn from patent publication US20170008921A1, “C-3 NOVEL TRITERPENONE WITH C-28 REVERSE AMIDE DERIVATIVES AS HIV INHIBITORS” (HETERO RESEARCH FOUNDATION, priority 2015, published 2017).
